Each structure is given as a SMILES string.

For the test, the target named is T1, glucocorticoid receptor (Homo sapiens, UniProt P04150).
T1 construct: endogenous in cells; host or cells: HeLa (ATCC) cell lysate supernatant
T1 sequence (P04150 1-777): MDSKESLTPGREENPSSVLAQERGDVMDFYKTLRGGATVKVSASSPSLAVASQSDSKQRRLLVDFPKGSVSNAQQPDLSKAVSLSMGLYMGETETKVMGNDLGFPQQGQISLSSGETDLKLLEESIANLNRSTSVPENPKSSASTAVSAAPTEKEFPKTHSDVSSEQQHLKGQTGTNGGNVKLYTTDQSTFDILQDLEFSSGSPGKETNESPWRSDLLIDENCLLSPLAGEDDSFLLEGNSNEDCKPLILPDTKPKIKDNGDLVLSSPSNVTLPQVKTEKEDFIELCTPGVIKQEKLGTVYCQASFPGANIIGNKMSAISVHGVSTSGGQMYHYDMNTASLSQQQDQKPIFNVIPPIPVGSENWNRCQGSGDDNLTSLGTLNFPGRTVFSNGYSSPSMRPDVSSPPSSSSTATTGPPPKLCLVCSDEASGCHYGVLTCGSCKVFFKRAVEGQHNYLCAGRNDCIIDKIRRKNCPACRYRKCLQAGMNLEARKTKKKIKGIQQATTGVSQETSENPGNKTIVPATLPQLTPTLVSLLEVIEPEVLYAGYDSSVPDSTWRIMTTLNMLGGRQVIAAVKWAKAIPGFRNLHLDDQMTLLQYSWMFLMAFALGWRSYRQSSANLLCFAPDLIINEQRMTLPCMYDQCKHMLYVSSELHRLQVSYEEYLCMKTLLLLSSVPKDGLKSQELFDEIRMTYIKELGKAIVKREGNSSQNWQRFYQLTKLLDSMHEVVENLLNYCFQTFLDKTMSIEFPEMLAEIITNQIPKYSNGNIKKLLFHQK
Briefly: Ligand binding assay (GRBind), 3H-dexamethasone displacement in HeLa cell lysate. Particulars: 3H-DEX tracer. Here is the method:
Binding Buffer: TEGM (10 mM Tris-HCl, 1 mM EDTA, 10% glycerol, 1 mM betamecaptoethanol, 10 mM Sodium Molybdate, pH 7.2)
50% HAP Slurry: Calbiochem Hydroxylapatite, Fast Flow, in 10 mM Tris, pH 8.0 and 1 mM EDTA.
Wash Buffer: 40 mM Tris, pH7.5, 100 mM KCl, 1 mM EDTA and 1 mM EGTA. 95% EtOH Dexmethasone-methyl-3H, (DEXA*); (Amersham cat#TRK645) Dexamethasone(DEX) (Sigma, cat#01756):
Hydroxylapatite Fast Flow; Calbiochem Cat#391947
25 Molybdate=Molybdic Acid (Sigma, M1651)
5 Cells (Hall R. E., et al., European Journal of Cancer, 30A: 484-490 (1994)) HeLa (ATCC) cultured in RPMI 1640 (Gibed 11835-055) containing 20 mM Hepes, 4 mM L-glu, 10 ug/ml of human insulin (Sigma, 1-0259), 10% FBS and 20 uglml of Gentamicin (Gibco#15710072) are rinsed twice in PBS. Phenol red-free Trypsin-EDTA is diluted in the same PBS 1:10. The cell layers are rinsed with IX Trypsin, extra Trypsin is poured out, and the cell layers are incubated at 37° C. for 2 min. The flask is tapped and checked for signs of cell detachment. Once the cells begin to slide off the flask, the complete media is added. The cells are counted at this point, then diluted to the appropriate concentration and split into flasks or dishes for further culturing (Usually 1:3 to 1:6 dilution).
Preparation of HeLa Cell Lysate
When the cells are 70 to 85% confluent, they are detached as described above, and collected by centrifuging at 1000 g for 10 min at 4° C. The cell pellet is washed twice with TEGM (10 mM Tris-HCl, 1 mM EDTA, 10% glycerol, 1 mM beta-mercaptoethanol, 10 mM Sodium Molybdate, pH 7.2). After the final wash, the cells are resuspended in TEGM at a concentration of 10^7 cells/mL. The cell suspension is snap frozen in liquid nitrogen or ethanol/dry ice bath and transferred to −80° C. freezer on dry ice. Before setting up the binding assay, the frozen samples are left on ice-water to just thaw. Then the samples are centrifuged at 12,500 g to 20,000 g for 30 min at 4° C. The supernatant is used to set-up assay right away. If using 50 μL of supernatant, the test compound can be prepared in 50 μL of the TEGM buffer.
Procedure for Multiple Compound Screening
1×TEGM buffer is prepared, and the isotope-containing assay mixture is prepared in the following order: EtOH (2% final concentration in reaction), 3H-DEX (Amersham Biosciences) and 1×TEGM. [e.g. For 100 samples, 200 JlL (100×2) of EtOH+4.25 JlL of 1:10 ^3H-Dex stock+2300 μL (100×23) 1×TEGM]. The compound is serially diluted, e.g., if starting final conc. is 1 μM, and the compound is in 25 μL of solution, for duplicate samples, 75 μL of 4×1 μM solution is made and 3 μL of 100). 1M is added to 72 μL of buffer, and 1:5 serial dilution.
25 μL of ^3H-DEX (6 nM) trace and 25 μL, compound solution are first mixed together, followed by addition of 50 μL receptor solution. The reaction is gently mixed, spun briefly at about 200 rpm and incubated at 4° C. overnight. 100 μL of 50% HAP slurry is prepared and added to the incubated reaction which is then vortexed and incubated on ice for 5 to 10 min. The reaction mixture is vortexed twice more to resuspend HAP while incubating reaction. The samples in 96-well format are then washed in wash buffer using the FilterMate™ Universal Harvester plate washer (Packard). The washing process transfers HAP pellet containing ligand-bound expressed receptor to Unifilter-96 GFIB filter plate (Packard). The HAP pellet on the filter plate is incubated with […] of MICROSCINT (Packard) scintillant for 30 min before being counted on the TopCount microscintillation counter (Packard). IC50s are calculated using DEX as a reference.

Consider `CC[C@]12Cc3cnn(-c4ccc(F)cc4)c3C=C1CC[C@@]2(O)CCc1ccccc1S(C)(=O)=O` [Example 42, (4aS,5R)-4a-Ethyl-1-(4-fluorophenyl)-5-{2-[2-(methylsulfonyl)phenyl]ethyl}-1,4,4a,5,6,7-hexahydrocyclopenta[f]indazol-5-ol], for which affinity was put at a Ki of 1.97 nM.

On to `CC[C@]12Cc3cnn(-c4ccc(F)cc4)c3C=C1CC[C@@]2(O)CCc1ccccc1C(O)C(N)=O` (stereo partly drawn) [Example 26, 2-(2-{2-[(4aS,5R)-4a-Ethyl-1-(4-fluorophenyl)-5-hydroxy-1,4,4a,5,6,7-hexahydrocyclopenta[f]indazol-5-yl]ethyl}phenyl)-2-hydroxyacetamide], for which the Ki (as a rule, a measure of affinity in units of concentration, obtained from inhibition or displacement) came out at 3.82 nM. Compared with the last compound, the Ki is about 1.9-fold higher.

`CC[C@]12Cc3cnn(-c4ccc(F)cc4)c3C=C1CC[C@@]2(O)CC(O)c1ncccc1Cl` (stereo partly drawn) [Example 70, (4aS,5R)-5-[2-(3-Chloropyridin-2-yl)-2-hydroxyethyl]-4a-ethyl-1-(4-fluorophenyl)-1,4,4a,5,6,7-hexahydrocyclopenta[f]indazol-5-ol] gave a Ki of 7.06 nM.

`N#Cc1c(F)cccc1CC[C@]1(O)CCC2=Cc3c(cnn3-c3ccccc3)C[C@@]21C1CC1` [Example 28, 2-{2-[(4aR,5R)-4a-Cyclopropyl-5-hydroxy-1-phenyl-1,4,4a,5,6,7-hexahydrocyclopenta[f]indazol-5-yl]ethyl}-6-fluorobenzonitrile] gave a Ki of 1.24 nM.

The compound `NC(=O)c1ccccc1CC[C@]1(O)CCC2=Cc3c(cnn3-c3ccc(F)cc3)C[C@@]21C1CC1` [Example 23, 2-{2-[(4aR,5R)-4a-Cyclopropyl-1-(4-fluorophenyl)-5-hydroxy-1,4,4a,5,6,7-hexahydrocyclopenta[f]indazol-5-yl]ethyl}benzamide] returned a Ki of 1.8 nM.

`NC(=O)Cc1c(F)cccc1CC[C@]1(O)CCC2=Cc3c(cnn3-c3ccc(F)cc3)C[C@@]21C1CC1` [Example 61, 2-(2-{2-[(4aR,5R)-4a-Cyclopropyl-1-(4-fluorophenyl)-5-hydroxy-1,4,4a,5,6,7-hexahydrocyclopenta[f]indazol-5-yl]ethyl}-6-fluorophenyl)acetamide] gave a Ki of 2.08 nM.

`COc1ccnc(CC[C@]2(O)CCC3=Cc4c(cnn4-c4ccc(F)cc4)C[C@@]32C2CC2)c1C(N)=O` [Example 54, 2-{2-[(4aR,5R)-4a-Cyclopropyl-1-(4-fluorophenyl)-5-hydroxy-1,4,4a,5,6,7-hexahydrocyclopenta[f]indazol-5-yl]ethyl}-4-methoxypyridine-3-carboxamide] registered a Ki of 2.44 nM.

`CC[C@]12Cc3cnn(-c4ccc(F)cc4)c3C=C1CC[C@@]2(O)CCc1ccccc1CCC(N)=O` [Example 22, 3-(2-{2-[(4aS,5R)-4a-Ethyl-1-(4-fluorophenyl)-5-hydroxy-1,4,4a,5,6,7-hexahydrocyclopenta[f]indazol-5-yl]ethyl}phenyl)propanamide] came in with an inhibition constant Ki of 1.48 nM.

The compound `N#Cc1ccccc1CC[C@]1(O)CCC2=Cc3c(cnn3-c3cccnc3)C[C@@]21C1CC1` [Example 30, 2-{2-[(4aR,5R)-4a-Cyclopropyl-5-hydroxy-1-(pyridin-3-yl)-1,4,4a,5,6,7-hexahydrocyclopenta[f]indazol-5-yl]ethyl}benzonitrile] displayed a Ki of 1.36 nM.

As to `NC(=O)CNC(=O)c1cccnc1CC[C@]1(O)CCC2=Cc3c(cnn3-c3ccc(F)cc3)C[C@@]21C1CC1` [Example 43, N-(2-Amino-2-oxoethyl)-2-{2-[(4aR,5R)-4a-cyclopropyl-1-(4-fluorophenyl)-5-hydroxy-1,4,4a,5,6,7-hexahydrocyclopenta[f]indazol-5-yl]ethyl}pyridine-3-carboxamide], the Ki stood at 5.47 nM.

In the case of `CC[C@]12Cc3cnn(-c4ccc(F)cc4)c3C=C1CC[C@@]2(O)CC(O)c1cncc(F)c1` (stereo partly drawn) [Example 73, (4aS,5R)-4a-Ethyl-1-(4-fluorophenyl)-5-[2-(5-fluoropyridin-3-yl)-2-hydroxyethyl]-1,4,4a,5,6,7-hexahydrocyclopenta[f]indazol-5-ol], the affinity corresponds to a Ki of 5.67 nM.

Regarding `CC[C@]12Cc3cnn(-c4ccc(F)cc4)c3C=C1CC[C@@]2(O)CCc1cc(C)ccn1` [Example 33, (4aS,5R)-4a-Ethyl-1-(4-fluorophenyl)-5-[2-(4-methylpyridin-2-yl)ethyl]-1,4,4a,5,6,7-hexahydrocyclopenta[f]indazol-5-ol], the Ki stood at 2.33 nM.

In turn, `CC[C@]12Cc3cnn(-c4cccnc4)c3C=C1CC[C@@]2(O)CCc1cccc(F)c1C(N)=O` [Example 14, 2-{2-[(4aS,5R)-4a-Ethyl-5-hydroxy-1-(pyridin-3-yl)-1,4,4a,5,6,7-hexahydrocyclopenta[f]indazol-5-yl]ethyl}-6-fluorobenzamide] gave a Ki of 8.68 nM.

On to `CC[C@]12Cc3cnn(-c4cccc(F)c4)c3C=C1CC[C@@]2(O)CCc1ccccc1C(N)=O` [Example 11, 2-{2-[(4aS,5R)-4a-Ethyl-1-(3-fluorophenyl)-5-hydroxy-1,4,4a,5,6,7-hexahydrocyclopenta[f]indazol-5-yl]ethyl}benzamide], for which the Ki came to 3.22 nM.

On to `CC[C@]12Cc3cnn(-c4ccccc4)c3C=C1CC[C@@]2(O)CCc1ccccc1C(N)=O` [Example 20, 2-{2-[(4aS,5R)-4a-Ethyl-5-hydroxy-1-phenyl-1,4,4a,5,6,7-hexahydrocyclopenta[f]indazol-5-yl]ethyl}benzamide], for which the affinity, expressed as Ki, was 2.49 nM.

`CC[C@]12Cc3cnn(-c4ccc(F)cc4)c3C=C1CC[C@@]2(O)CC(O)c1c(F)ccnc1Cl` (stereo partly drawn) [Example 74, (4aS,5R)-5-[2-(2-Chloro-4-fluoropyridin-3-yl)-2-hydroxyethyl]-4a-ethyl-1-(4-fluorophenyl)-1,4,4a,5,6,7-hexahydrocyclopenta[f]indazol-5-ol] had a Ki of 9.35 nM.

Compound `COc1cccc(CC[C@]2(O)CCC3=Cc4c(cnn4-c4ccc(F)cc4)C[C@@]32C2CC2)c1C(N)=O` [Example 38, 2-{2-[(4aR,5R)-4a-Cyclopropyl-1-(4-fluorophenyl)-5-hydroxy-1,4,4a,5,6,7-hexahydrocyclopenta[f]indazol-5-yl]ethyl}-6-methoxybenzamide] displayed a Ki of 1.25 nM.

These data come from patent US20120214847A1, “2-[1-PHENYL-5-HYDROXY-4a-SUBSTITUTED-HEXAHYDROCYCLOPENTA[F]INDAZOL-5-YL]ETHYL PHENYL DERIVATIVES AS GLUCOCORTICOID RECEPTOR LIGANDS” (Merck Sharp & Dohme Corp., priority 2009, published 2012).
